Our source for the IC50 and inhibition values is ChEMBL document CHEMBL4373715, “Discovery and Biological Evaluations of Halogenated 2,4-Diphenyl Indeno[1,2-b]pyridinol Derivatives as Potent Topoisomerase IIα-Targeted Chemotherapeutic Agents for Breast Cancer” (J Med Chem, 2019).

Some results are limits rather than exact numbers.

The subject of assay [1] is HCT-15. The assay is described as follows: Antiproliferative activity against human HCT15 cells measured after 72 hrs by EZ-Cytox assay. The assay is classed as functional, cell-based. The conditions noted are these: HCT-15, 72 h.
The subject of assay [2] is T47D. In words: Antiproliferative activity against human T47D cells measured after 72 hrs by EZ-Cytox assay. Format: functional, cell-based.
Assay [3] has as its system DU-145. The assay is described as follows: Antiproliferative activity against human DU145 cells measured after 72 hrs by EZ-Cytox assay. The assay is classed as functional, cell-based. As to conditions: DU-145, 72 h.
Assay [4] concerns HeLa. In words: Antiproliferative activity against human HeLa cells measured after 72 hrs by EZ-Cytox assay. The assay is classed as functional, cell-based.
The target in assay [5] is T1, DNA topoisomerase 1 (Homo sapiens) (UniProt P11387).
T1 sequence (whole entry): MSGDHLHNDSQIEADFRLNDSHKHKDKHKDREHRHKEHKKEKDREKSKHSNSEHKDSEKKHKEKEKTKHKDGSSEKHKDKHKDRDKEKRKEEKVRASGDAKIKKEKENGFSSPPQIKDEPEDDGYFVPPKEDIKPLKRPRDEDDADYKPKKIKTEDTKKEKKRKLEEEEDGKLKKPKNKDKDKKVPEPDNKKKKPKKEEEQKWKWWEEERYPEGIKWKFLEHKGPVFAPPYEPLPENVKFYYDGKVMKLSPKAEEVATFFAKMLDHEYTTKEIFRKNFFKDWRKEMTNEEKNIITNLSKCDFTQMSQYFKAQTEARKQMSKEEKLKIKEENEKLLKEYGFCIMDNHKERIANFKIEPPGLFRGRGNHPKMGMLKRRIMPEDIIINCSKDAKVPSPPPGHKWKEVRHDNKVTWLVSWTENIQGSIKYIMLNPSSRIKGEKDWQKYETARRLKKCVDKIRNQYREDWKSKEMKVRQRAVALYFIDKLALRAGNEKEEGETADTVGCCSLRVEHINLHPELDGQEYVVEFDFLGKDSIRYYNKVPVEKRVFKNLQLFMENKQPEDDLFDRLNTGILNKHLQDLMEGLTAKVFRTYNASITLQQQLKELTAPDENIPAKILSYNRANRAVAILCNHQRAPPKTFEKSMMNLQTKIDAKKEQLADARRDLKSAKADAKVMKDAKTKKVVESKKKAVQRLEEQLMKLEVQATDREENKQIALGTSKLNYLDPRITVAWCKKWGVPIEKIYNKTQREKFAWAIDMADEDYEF
The assay is described as follows: Inhibition of recombinant human topoisomerase 1-mediated relaxation of supercoiled pBR322 DNA at 100 uM measured after 30 mins by ethidium bromide staining based agarose gel electrophoresis relative to control.

Assay [6] addresses DNA topoisomerase 2-alpha (Homo sapiens) (UniProt P11388). In words: Inhibition of recombinant human topoisomerase 2alpha-mediated relaxation of supercoiled pBR322 DNA at 100 uM measured after 30 mins by ethidium bromide staining based agarose gel electrophoresis relative to control.
Assay [7] has the same target. The assay is described as follows: Inhibition of recombinant human topoisomerase 2alpha-mediated relaxation of supercoiled pBR322 DNA at 20 uM measured after 30 mins by ethidium bromide staining based agarose gel electrophoresis relative to control.

Chain of DNA topoisomerase 2-alpha (Homo sapiens) (P11388 whole entry): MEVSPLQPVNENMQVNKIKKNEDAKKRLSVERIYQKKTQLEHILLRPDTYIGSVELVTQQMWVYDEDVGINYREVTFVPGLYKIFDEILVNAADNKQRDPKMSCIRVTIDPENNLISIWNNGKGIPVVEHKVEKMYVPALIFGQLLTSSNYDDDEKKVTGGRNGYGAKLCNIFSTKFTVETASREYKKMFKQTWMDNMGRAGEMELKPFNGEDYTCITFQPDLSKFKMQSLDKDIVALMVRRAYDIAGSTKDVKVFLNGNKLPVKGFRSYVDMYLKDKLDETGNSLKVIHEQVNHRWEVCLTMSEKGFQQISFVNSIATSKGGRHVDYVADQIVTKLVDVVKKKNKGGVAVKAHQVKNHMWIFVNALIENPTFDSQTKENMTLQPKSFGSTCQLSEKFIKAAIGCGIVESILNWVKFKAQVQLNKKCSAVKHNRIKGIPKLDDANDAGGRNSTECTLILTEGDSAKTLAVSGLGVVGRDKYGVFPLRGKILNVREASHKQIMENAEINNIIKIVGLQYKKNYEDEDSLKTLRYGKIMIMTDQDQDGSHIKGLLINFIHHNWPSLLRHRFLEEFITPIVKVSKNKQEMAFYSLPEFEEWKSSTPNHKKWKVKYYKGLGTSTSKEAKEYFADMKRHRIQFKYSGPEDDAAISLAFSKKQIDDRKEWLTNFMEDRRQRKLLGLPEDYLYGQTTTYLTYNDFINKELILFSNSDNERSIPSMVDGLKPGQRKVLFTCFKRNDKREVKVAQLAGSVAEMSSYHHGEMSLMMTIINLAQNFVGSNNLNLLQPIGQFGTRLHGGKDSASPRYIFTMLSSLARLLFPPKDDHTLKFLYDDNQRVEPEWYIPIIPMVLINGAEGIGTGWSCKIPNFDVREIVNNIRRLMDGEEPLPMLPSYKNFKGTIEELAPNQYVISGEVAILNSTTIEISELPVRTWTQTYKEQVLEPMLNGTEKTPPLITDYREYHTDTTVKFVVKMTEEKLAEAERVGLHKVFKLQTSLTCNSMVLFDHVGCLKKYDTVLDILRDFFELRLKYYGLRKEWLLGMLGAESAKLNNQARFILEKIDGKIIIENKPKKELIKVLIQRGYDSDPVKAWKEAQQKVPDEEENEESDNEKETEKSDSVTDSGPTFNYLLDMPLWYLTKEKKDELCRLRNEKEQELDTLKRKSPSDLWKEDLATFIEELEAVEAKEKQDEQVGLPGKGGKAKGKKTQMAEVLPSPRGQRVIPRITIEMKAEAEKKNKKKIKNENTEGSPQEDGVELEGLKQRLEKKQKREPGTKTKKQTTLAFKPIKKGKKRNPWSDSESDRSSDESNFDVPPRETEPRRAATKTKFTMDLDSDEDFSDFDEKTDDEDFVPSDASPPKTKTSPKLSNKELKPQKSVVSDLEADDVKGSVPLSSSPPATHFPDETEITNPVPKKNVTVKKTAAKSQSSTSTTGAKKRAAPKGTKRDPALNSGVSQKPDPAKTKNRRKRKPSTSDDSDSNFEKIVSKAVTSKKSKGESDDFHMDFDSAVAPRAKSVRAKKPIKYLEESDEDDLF

`Oc1ccc2c(c1)-c1nc(-c3ccccc3O)cc(-c3cccc(Cl)c3)c1C2`: the IC50 was 29.8 µM in assay [1], 7.69 µM in assay [2], 37.1 µM in assay [3] and 20 µM in assay [4]. Besides, the inhibition in assay [5] was determined as 1.9%; in assay [6], 67.2%; in assay [7] it was 4%.
Regarding `Oc1cccc(-c2cc(-c3cccc(Cl)c3)c3c(n2)-c2cc(O)ccc2C3)c1`, the IC50 in assay [1] stood at 6.6 µM; in assay [2], 7.2 µM; in assay [3], 3.22 µM; in assay [4] it was 6.24 µM. Besides, the inhibition in assay [5] was 11.6%; in assay [6], 76.3%; in assay [7], 3.5%.
Consider `Oc1cccc(-c2cc(-c3ccc(C(F)(F)F)cc3)nc3c2Cc2cc(O)ccc2-3)c1`, for which the IC50 in assay [1] turned out to be 6.82 µM; in assay [2] it was 8.9 µM; in assay [3], 1.59 µM; in assay [4] it was 11.4 µM. Also, the figures for the inhibition in assay [5], in assay [6] and in assay [7] were 2.8%, 100% and 14.9%, respectively.
In the case of `Oc1ccc(-c2cc(-c3cccc(Cl)c3)c3c(n2)-c2cc(O)ccc2C3)cc1`, the IC50 in assay [1] amounted to 7.59 µM; in assay [2], 2.76 µM; in assay [3], 2.1 µM; in assay [4] it was 8.06 µM. Besides, the inhibition worked out at 8.8% in assay [5], 73.6% in assay [6] and 1.2% in assay [7].
Take `Oc1cccc(-c2cc(-c3ccc(Cl)cc3)nc3c2Cc2c(O)cccc2-3)c1`: the IC50 in assay [1] worked out at 1.82 µM; in assay [2], 1.96 µM; in assay [3], 2.03 µM; in assay [4], 4.32 µM. Also, the inhibition in assay [5] worked out at 18.6%; in assay [6] it was 76.8%; in assay [7], 42%.
As for `Oc1cccc2c1Cc1c(-c3ccccc3)cc(-c3ccccc3)nc1-2`, the 50% inhibitory concentration (IC50) came to 3.39 µM in assay [1], 1.77 µM in assay [2], 2.71 µM in assay [3] and 4.18 µM in assay [4]. The inhibition in assay [5] is 4.6%; in assay [6] it was 75.7%; in assay [7], 1.3%.
In the case of `Oc1cccc(-c2cc(-c3cccc(Cl)c3)c3c(n2)-c2c(O)cccc2C3)c1`, the IC50 was over 50 µM in assay [1], over 50 µM in assay [2], 17.1 µM in assay [3] and over 50 µM in assay [4]. Further, the results for the inhibition in assay [5], in assay [6] and in assay [7] were 8.9%, 71.9% and 0.3%, respectively.
Turning to `Oc1cccc(-c2cc(-c3ccccc3Cl)nc3c2Cc2c(O)cccc2-3)c1`, the IC50 is 0.8 µM in assay [1], 1.53 µM in assay [2], 0.92 µM in assay [3] and 0.59 µM in assay [4]. In addition, the inhibition in assay [5] came out at 0%; in assay [6] it was 100%; in assay [7] it was 24.9%.
Turning to `Oc1cccc(-c2cc(-c3ccccc3Cl)nc3c2Cc2ccc(O)cc2-3)c1`, the IC50 in assay [1] was 3.04 µM; in assay [2], 0.55 µM; in assay [3], 0.57 µM; in assay [4], over 50 µM. The inhibition in assay [5] came to 3.9%; in assay [6] it was 88.7%; in assay [7] it was 38.3%.
As for `Oc1cccc(-c2cc(-c3ccccc3F)nc3c2Cc2cc(O)ccc2-3)c1`, the IC50 in assay [1] is 3.58 µM; in assay [2], 2.24 µM; in assay [3], 1.62 µM; in assay [4], 3.98 µM. The inhibition in assay [5] is 9.1%; in assay [6] it was 44.6%; in assay [7], 4.9%.
`Oc1ccc(-c2cc(-c3cccc(F)c3)nc3c2Cc2cccc(O)c2-3)cc1`: the IC50 was over 50 µM in assay [1], 0.75 µM in assay [2], 5.78 µM in assay [3] and 7.2 µM in assay [4]. Also, the inhibition in assay [5] came to 1.1%; in assay [6] it was 67%; in assay [7], 3.9%.

Broadly, the IC50 is the concentration that inhibits the measured activity by half. A higher IC50 goes with weaker potency in that assay. Broadly, the inhibition is the share of the control response that was lost under treatment.
